Common to all, as to assay: NCI anticancer screen, dose series, 48 h
Experiment [1] concerns UACC-257.
Experiment [2] concerns ACHN.
In experiment [3] the test system is TK-10.
Experiment [4] relates to KM12.
For experiment [5], the system named is M14.
Experiment [6] has as its system OVCAR-8.
The test system of experiment [7] is NCI-H23.
Experiment [8] deals with SN12C.
Experiment [9] relates to MOLT-4.
Experiment [10] relates to PC-3.
Experiment [11] concerns SR.
For experiment [12], the system named is OVCAR-3.
Experiment [13] has as its system NCI-H460.
Experiment [14] concerns A498.
For experiment [15], the system named is NCI-H522.
Experiment [16] has as its system EKVX.
For experiment [17], the system named is MDA-N.
In experiment [18] the test system is NCI/ADR-RES.
Experiment [19] concerns RPMI-8226.
The subject of experiment [20] is RXF 393.

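Five compound concentrations were applied to cells in 96-well plates for 48 hours; endpoints were derived by simple linear interpolation of the resulting dose-response curve. Here, GI50 denotes the concentration required for 50% inhibition of growth.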 The source made the active and inactive calls. Rule as the data show it: active = GI50 up to about 1.1 µM and inactive = higher. *1 amine or outer side, *2 acyl side, *3 side chain or, on linkers, in order; H or OH if unused. Where a SMILES comes first, the peptide text is derived from it. Bridges are numbered along the chain shown (N, C = ends). [ ]: non-standard residue; d: D form. ξ: configuration not given here. X10 = CCC(C)C(N[*:1])C(O)CC(=O)O[C@H](C(=O)C(C)C(=O)[*:2])C(C)C; NMeY = CN[C@@H](Cc1ccc(O)cc1)C(=O)O; ξNMeL = CNC(CC(C)C)C(=O)O; ξT = CC(O)C(N)C(=O)O

We go through 7 molecules from ChEMBL document CHEMBL1201862, “PubChem BioAssay data set” (2004).

In the case of `CCOC1C=CCCO1` (stereo not given), the GI50 in experiment [1], in [2], in experiment [3], in [4], in [5] and in experiment [6] was > 100 µM (inactive) in each case. The GI50 in experiment [7], in [8], in experiment [9], in experiment [10], in [11] and in experiment [12] was > 100 µM (inactive) each time. Moreover, the GI50 in experiment [13], in experiment [14], in experiment [15], in [16], in [17] and in [18] was > 100 µM (inactive) each time. The GI50 in [19] and in [20] was > 100 µM (inactive) throughout.

Turning to `CCN1C(=S)n2cccc2C1CC(=O)c1ccc(Cl)cc1` (stereo not given), the GI50 is 18.4 µM (inactive) in [1]; > 100 µM (inactive) in experiment [2]; 95.9 µM (inactive) in [3]; > 100 µM (inactive) in experiment [4]; 89.9 µM (inactive) in [5]; > 100 µM (inactive) in experiment [6]. The GI50 in [7] is 13 µM (inactive); in experiment [8] it was > 100 µM (inactive); in [9], 22.8 µM (inactive); in experiment [10], 40.2 µM (inactive); in experiment [11], 57 µM (inactive); in experiment [12], 74 µM (inactive). Also, the GI50 was 34.7 µM (inactive) in experiment [13]; 43.5 µM (inactive) in experiment [14]; 15.5 µM (inactive) in experiment [15]; 32.3 µM (inactive) in [16]; 88.5 µM (inactive) in experiment [17]; 42.4 µM (inactive) in experiment [18]. For the same molecule, the GI50 in experiment [19] is 15.7 µM (inactive); in experiment [20], > 100 µM (inactive).

On to `CC1=NN(c2cccc(Cl)c2)C2(C1)SCC(=O)N2c1nc2ccccc2s1` (stereo not given), for which the GI50 is 22.4 µM (inactive) in experiment [1]; 26.8 µM (inactive) in experiment [2]; 30.2 µM (inactive) in [3]; 25.5 µM (inactive) in [4]; 26.7 µM (inactive) in experiment [5]; 35.6 µM (inactive) in experiment [6]. Also, the GI50 is 29.2 µM (inactive) in experiment [7]; 22.1 µM (inactive) in [8]; 16.1 µM (inactive) in experiment [9]; 23.3 µM (inactive) in experiment [10]; 17.9 µM (inactive) in experiment [11]; 16.2 µM (inactive) in [12]. In addition, the GI50 in [13] was 21.6 µM (inactive); in [14], 27.9 µM (inactive); in [15], 25.9 µM (inactive); in experiment [16] it was 29.7 µM (inactive); in experiment [17], 33 µM (inactive); in experiment [18], 32.1 µM (inactive). The values for the GI50 in experiment [19] and in experiment [20] were 16.3 µM (inactive) and 17.7 µM (inactive), respectively.

Take `COc1ccc(-c2nc(N)c3ncn(C4OC(CO)C(O)C4O)c3n2)cc1` (stereo not given): the GI50 in experiment [1], in [2], in experiment [3], in [4], in [5] and in experiment [6] was > 100 µM (inactive) throughout. Besides, the GI50 in [7] is > 100 µM (inactive); in experiment [8], > 100 µM (inactive); in experiment [9], 70.6 µM (inactive); in [10], > 100 µM (inactive); in experiment [11], > 100 µM (inactive); in experiment [12] it was > 100 µM (inactive). Further, the GI50 in experiment [13] is > 100 µM (inactive); in experiment [14], > 100 µM (inactive); in experiment [15], 62.8 µM (inactive); in experiment [16], > 100 µM (inactive); in experiment [17] it was > 100 µM (inactive); in experiment [18], > 100 µM (inactive). In addition, the GI50 in experiment [19] and in experiment [20] was > 100 µM (inactive) throughout.

Turning to `COc1cccc(C(=O)N[C@@H]2[C@H](O)[C@@H](CO)O[C@H]2n2cnc3c(N)ncnc32)c1`, the GI50 in experiment [1], in experiment [2], in experiment [3], in experiment [4], in experiment [5] and in experiment [6] was > 100 µM (inactive) in each case. Also, the GI50 in experiment [7], in [8], in experiment [9], in [10], in experiment [11] and in experiment [12] was > 100 µM (inactive) throughout. Also, the GI50 in [13], in experiment [14], in experiment [15], in experiment [16], in experiment [17] and in [18] was > 100 µM (inactive) throughout. Further, the GI50 in experiment [19] and in experiment [20] was > 100 µM (inactive) each time.

On to `CCC(C)C1NC(=O)C(NC(=O)C(CC(C)C)N(C)C(=O)[C@@H]2CCCN2)C(C)OC(=O)[C@H](Cc2ccc(OC)cc2)N(C)C(=O)[C@@H]2CCCN2C(=O)[C@H](CC(C)C)NC(=O)C(C)C(=O)[C@H](C(C)C)OC(=O)CC1O` (stereo not given in full) (H-P[ξNMeL][ξT][X10]LP[NMeY](Me); ester 3-C), for which the GI50 in experiment [1] was 0.000815 µM (active); in experiment [2], 0.00234 µM (active); in experiment [3], 0.00355 µM (active); in experiment [4], < 0.01 µM (active); in [5], 0.000222 µM (active); in [6], 0.00221 µM (active). For the same molecule, the GI50 was 0.000258 µM (active) in experiment [7]; 0.000411 µM (active) in experiment [8]; 0.000244 µM (active) in [9]; 0.00106 µM (active) in experiment [10]; 0.000317 µM (active) in [11]; 0.00136 µM (active) in [12]. Further, the GI50 was 0.000249 µM (active) in experiment [13]; 0.00411 µM (active) in experiment [14]; 0.000366 µM (active) in experiment [15]; < 0.01 µM (active) in [16]; 0.000346 µM (active) in [17]; 0.0521 µM (active) in experiment [18]. For the same molecule, the GI50 was 0.00116 µM (active) in [19] and < 0.01 µM (active) in experiment [20].

On to `NC(=O)c1cc(N2CC2)c([N+](=O)[O-])cc1[N+](=O)[O-]` [TRETAZICAR], for which the GI50 was > 100 µM (inactive) in experiment [1]; > 100 µM (inactive) in experiment [2]; > 200 µM (inactive) in experiment [3]; > 100 µM (inactive) in [4]; > 100 µM (inactive) in [5]; > 100 µM (inactive) in experiment [6]. Besides, the GI50 in experiment [7] was > 100 µM (inactive); in experiment [8] it was > 100 µM (inactive); in experiment [9], > 63.2 µM (inactive); in experiment [10], > 200 µM (inactive); in [11], > 200 µM (inactive); in [12] it was > 100 µM (inactive). Also, the GI50 in experiment [13] is 13 µM (inactive); in experiment [14], > 66.7 µM (inactive); in experiment [15], > 100 µM (inactive); in experiment [16] it was > 100 µM (inactive); in experiment [17], > 200 µM (inactive); in experiment [18], > 200 µM (inactive). Further, the GI50 in [19] and in experiment [20] was > 100 µM (inactive) throughout.
